pIC50: −log10 of the molar value.
What was measured:
KB = assay: Cytotoxicity against human KB cells; assay type: functional, cell-based
[1] = Redox potential of compound in phosphate buffer at pH 7.2 by cyclic voltammetry; assay type: physicochemical
HeLa = assay: Cytotoxicity against human HeLa cells; assay type: functional, cell-based
DNA topoisomerase 1 = target: T1, DNA topoisomerase 1 (Homo sapiens, UniProt P11387); assay: Inhibition of DNA topoisomerase 1 (unknown origin)
T1 sequence (P11387 whole entry): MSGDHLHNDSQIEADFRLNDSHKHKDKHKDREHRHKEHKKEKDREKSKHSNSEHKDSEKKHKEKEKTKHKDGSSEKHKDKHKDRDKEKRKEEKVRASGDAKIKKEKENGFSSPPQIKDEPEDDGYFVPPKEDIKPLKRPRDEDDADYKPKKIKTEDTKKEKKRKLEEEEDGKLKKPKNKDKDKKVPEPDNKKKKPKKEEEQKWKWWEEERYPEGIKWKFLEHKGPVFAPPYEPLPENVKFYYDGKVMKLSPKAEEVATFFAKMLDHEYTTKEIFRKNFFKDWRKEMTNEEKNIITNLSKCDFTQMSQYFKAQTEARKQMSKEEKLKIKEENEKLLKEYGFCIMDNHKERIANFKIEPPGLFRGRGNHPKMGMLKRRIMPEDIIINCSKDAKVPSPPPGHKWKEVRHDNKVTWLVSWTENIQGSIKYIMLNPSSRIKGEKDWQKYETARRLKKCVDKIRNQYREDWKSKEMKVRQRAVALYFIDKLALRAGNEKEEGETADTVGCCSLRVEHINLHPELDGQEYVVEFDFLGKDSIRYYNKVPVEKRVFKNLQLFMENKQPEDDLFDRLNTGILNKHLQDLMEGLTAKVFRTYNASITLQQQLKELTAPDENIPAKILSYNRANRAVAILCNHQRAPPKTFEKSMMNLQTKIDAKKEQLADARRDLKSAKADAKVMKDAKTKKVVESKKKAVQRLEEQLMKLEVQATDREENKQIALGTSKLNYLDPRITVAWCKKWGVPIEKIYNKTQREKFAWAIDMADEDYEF

| Structure (SMILES) | Activity [1] [V] | pIC50 (DNA topoisomerase 1) | pIC50 (KB) | pIC50 (HeLa) |
| --- | --- | --- | --- | --- |
| CCCOC1=CC(=O)c2ccccc2C1=O | -0.32 |  | 4.31 | 4.29 |
| O=C(Oc1ccc2c(c1)C(=O)C=CC2=O)c1ccccc1 | -0.174 |  | 4.92 | 4.72 |
| CCCCOC1=CC(=O)c2ccccc2C1=O | -0.305 |  | 4.57 | 4.45 |
| CC1=CC(=O)c2c(O)cccc2C1=O [PLUMBAGIN] | -0.346 |  | 5.01 | 4.99 |
| CS(=O)(=O)OC1=CC(=O)c2ccccc2C1=O | -0.146 |  | 5.14 | 5.12 |
| O=C1C=C(O)C(=O)c2ccccc21 [LAWSONE] | -0.431 |  | 3.98 | 4.15 |
| O=C(OC1=CC(=O)c2ccccc2C1=O)c1cccs1 | -0.413 |  | 4.38 | 4.45 |
| O=C(OC1=CC(=O)c2ccccc2C1=O)c1ccccc1 | -0.368 |  | 4.43 | 4.26 |
| CS(=O)(=O)Oc1ccc2c(c1)C(=O)C=CC2=O | -0.15 |  | 4.94 | 4.75 |
| O=C1C=CC(=O)c2c(O)cccc21 [JUGLONE] | -0.204 | 5.08 | 5.18 | 4.80 |
| O=C1C=CC(=O)c2cc(OCc3ccccc3)ccc21 | -0.207 | 4.27 | 4.58 | 4.77 |
| Cc1ccc(S(=O)(=O)Oc2ccc3c(c2)C(=O)C=CC3=O)cc1 | -0.154 | < 4.00 | 4.79 | 4.82 |
| CCOC1=CC(=O)c2ccccc2C1=O | -0.304 |  | 4.77 | 4.62 |
| C=CCOc1ccc2c(c1)C(=O)C=CC2=O | -0.194 |  | 4.99 | 4.57 |
| O=C1C=C(Oc2ccco2)C(=O)c2ccccc21 | -0.395 |  | 4.27 | 4.43 |
| Cc1ccc(S(=O)(=O)OC2=CC(=O)c3ccccc3C2=O)cc1 | -0.165 |  | 4.73 | 4.91 |
| O=C(Oc1ccc2c(c1)C(=O)C=CC2=O)c1cccs1 | -0.166 | < 4.00 | 4.74 | 5.05 |
| COC1=CC(=O)c2ccccc2C1=O [2-Methoxy-1,4-naphthoquinone] | -0.305 |  | 4.76 | 4.53 |
| C/C=C/C(=O)OC1=CC(=O)c2ccccc2C1=O | -0.413 |  | 4.19 | 4.42 |
| O=C(Oc1ccc2c(c1)C(=O)C=CC2=O)c1ccco1 | -0.16 | < 4.00 | 4.80 | 4.77 |

Second part, led by results:

| Activity [1] [V] | pIC50 (DNA topoisomerase 1) | Structure (SMILES) | pIC50 (KB) | pIC50 (HeLa) |
| --- | --- | --- | --- | --- |
| -0.192 |  | O=C1C=CC(=O)c2cc(O)ccc21 | 4.88 | 5.15 |
| -0.18 | < 4.00 | CC(=O)Oc1ccc2c(c1)C(=O)C=CC2=O | 4.66 | 4.56 |
| -0.416 |  | CC(=O)OC1=CC(=O)c2ccccc2C1=O | 4.41 | 4.21 |
| -0.208 | 4.04 | O=C(Oc1cccc2c1C(=O)C=CC2=O)c1ccccc1 | 5.19 | 4.89 |
| -0.196 |  | COc1ccc2c(c1)C(=O)C=CC2=O | 4.47 | 4.64 |
| -0.158 | < 4.00 | CS(=O)(=O)Oc1cccc2c1C(=O)C=CC2=O | 4.57 | 4.63 |
| -0.151 |  | Cc1ccc(S(=O)(=O)Oc2cccc3c2C(=O)C=CC3=O)cc1 | 4.97 | 5.02 |
| -0.212 | < 4.00 | O=C(Oc1cccc2c1C(=O)C=CC2=O)c1cccs1 | 5.21 | 5.28 |
| -0.213 |  | O=C(Oc1cccc2c1C(=O)C=CC2=O)c1ccco1 | 4.87 | 4.90 |
| -0.197 |  | CCOc1ccc2c(c1)C(=O)C=CC2=O | 4.67 | 4.60 |
| -0.208 |  | CC(=O)Oc1cccc2c1C(=O)C=CC2=O | 5.86 | 5.19 |
| -0.165 | 4.32 | COc1cccc2c1C(=O)C=CC2=O | 4.62 | 4.66 |
| -0.16 |  | O=C1C=CC(=O)c2c(OCc3ccccc3)cccc21 | 5.07 | 4.86 |
